In patent US20240262815A1, “HETEROARYL DERIVATIVE, METHOD FOR PREPARING SAME, AND PHARMACEUTICAL COMPOSITION COMPRISING SAME AS ACTIVE INGREDIENT” (VORONOI INC., priority 2021, published 2024) one finds GI50 data, which are given here for 21 compounds.

The structures appear in SMILES notation. A value given as a limit tells only on which side of the number the result lay.

One assay deals with BT-474 cancer cells. Description: Inhibitory activity against proliferation of BT-474 cancer cells (CellTiter-Glo). It is filed as cell-based. To be noted: Homo sapiens, BT-474 ErbB2-overexpressing cancer cells, 120 hours after treatment. An outline of the steps: (§1)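 Cells seeded 48 h before dosing (SK-BR-3 in McCOY'S 5A + 10% FBS; BT-474 in RPMI-1640 + 20% FBS), then exposed 120 h to 12 concentrations, 0.2 nM-5 μM final. Viability by CellTiter-Glo luminescence; GI50 from growth rate vs control, triplicate runs.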

Another assay relates to SK-BR-3 cancer cells. In words: Inhibitory activity against proliferation of SK-BR-3 cancer cells (CellTiter-Glo). It is filed as cell-based. To be noted: Homo sapiens, SK-BR-3, 120 h, ErbB2-overexpressing SK-BR-3 cells, 120 hours after treatment. An outline of the steps:
as §1
For orientation: In ATP-based viability assays light output follows the ATP content of the culture.

What is called GI50 is the concentration at which growth is held to half of that of the control. For `C=CC(=O)Nc1cc(Nc2cc(N3OCC[C@@H]3c3cccc(-c4cccc(C(F)(F)F)c4F)c3)ncn2)c(OC)cc1N(C)CCN(C)C` [Example 280, (R)-N-(2-((2-(dimethylamino)-ethyl)(methyl)-amino)-5-((6-(3-(2′-fluoro-3′-(trifluoromethyl)-[1,1′-biphenyl]-3-yl)isoxazolidin-2-yl)pyrimidin-4-yl)-amino)-4-methoxy-phenyl)acrylamide], the 50% growth inhibitory concentration (GI50) in the assay on BT-474 cancer cells and with SK-BR-3 cancer cells was less than 50 nM each time.

Take `C=CC(=O)Nc1cc(Nc2cc(N3OCC[C@@H]3c3cccc(-c4ccc(F)cc4F)c3)ncn2)c(OC)cc1N1CCN(C)CC1` [Example 281, (R)-N-(5-((6-(3-(2′,4′-difluoro-[1,1′-biphenyl]-3-yl)isoxazolidin-2-yl)pyrimidin-4-yl)-amino)-4-methoxy-2-(4-methylpiper-azin-1-yl)phenyl)-acrylamide]: the GI50 in the assay on BT-474 cancer cells and in the assay on SK-BR-3 cancer cells was less than 50 nM each time.

Turning to `C=CC(=O)Nc1cc(Nc2cc(N3OCC[C@@H]3c3cccc(-c4cccc(C(F)(F)F)c4F)c3)ncn2)c(OC)cc1N1CCN(C)CC1` [Example 282, (R)-N-(5-((6-(3-(2′-fluoro-3′-(tri-fluoromethyl)-[1,1′-biphenyl]-3-yl)isoxazolidin-2-yl)pyrimidin-4-yl)-amino)-4-methoxy-2-(4-methylpiper-azin-1-yl)phenyl)-acrylamide], the concentration for 50% growth inhibition (GI50) is less than 50 nM in the assay with BT-474 cancer cells and 50 to 500 nM in the assay on SK-BR-3 cancer cells.

Consider `C=CC(=O)Nc1cc(Nc2cc(N3OCC[C@@H]3c3cccc(-c4cc(F)cc(C(F)(F)F)c4)c3)ncn2)c(OC)cc1N1CCN(C)CC1` [Example 283, (R)-N-(5-((6-(3-(3′-fluoro-5′-(trifluoromethyl)-[1,1′-biphenyl]-3-yl)isoxazolidin-2-yl)pyrimidin-4-yl)-amino)-4-methoxy-2-(4-methylpiper-azin-1-yl)phenyl)-acrylamide], for which the GI50 with BT-474 cancer cells was less than 50 nM; in the assay with SK-BR-3 cancer cells, 50 to 500 nM.

In the case of `C=CC(=O)Nc1cc(Nc2cc(N3OCC[C@@H]3c3cccc(-c4cccc(F)c4F)c3)ncn2)c(OC)cc1N1CCN(C)CC1` [Example 284, (R)-N-(5-((6-(3-(2′,3′-difluoro-[1,1′-biphenyl]-3-yl)isoxazolidin-2-yl)pyrimidin-4-yl)-amino)-4-methoxy-2-(4-methylpiper-azin-1-yl)phenyl)-acrylamide], the 50% growth inhibitory concentration (GI50) in the assay with BT-474 cancer cells and in the assay on SK-BR-3 cancer cells was less than 50 nM throughout.

Turning to `COc1cc(N2CCN(C)CC2)c(NC(=O)/C=C/CN(C)C)cc1Nc1cc(N2OCC[C@@H]2c2cccc(-c3cccc(F)c3)c2)ncn1` [Example 285, (R,E)-4-(dimethyl-amino)-N-(5-((6-(3-(3′-fluoro-[1,1′-biphenyl]-3-yl)-isoxazolidin-2-yl)-pyrimidin-4-yl)-amino)-4-methoxy-2-(4-methylpiper-azin-1-yl)phenyl)-but-2-enamide], the GI50 in the assay on BT-474 cancer cells and in the assay on SK-BR-3 cancer cells was less than 50 nM throughout.

Regarding `C=CC(=O)Nc1cc(Nc2cc(N3OCC[C@@H]3c3cccc(-c4cccc(F)c4)c3)ncn2)c(OC)cc1N1CCO[C@@H](C)C1` [Example 286, N-(5-((6-((R)-3-(3′-fluoro-[1,1′-biphenyl]-3-yl)-isoxazolidin-2-yl)-pyrimidin-4-yl)-amino)-4-methoxy-2-((S)-2-methyl-morpholino)phen-yl)acrylamide], the GI50 with BT-474 cancer cells and with SK-BR-3 cancer cells was less than 50 nM in each case.

Regarding `C=CC(=O)Nc1cc(Nc2cc(N3OCC[C@@H]3c3cccc(-c4cccc(F)c4)c3)ncn2)c(OC)cc1N1C[C@H]2C[C@@H]1CO2` [Example 287, N-(2-((1R,4R)-2-oxa-5-azabicyclo-[2.2.1]heptan-5-yl)-5-((6-((R)-3-(3′-fluoro-[1,1′-biphenyl]-3-yl)-isoxazolidin-2-yl)-pyrimidin-4-yl)-amino)-4-meth-oxyphenyl)acryl-amide], the 50% growth inhibitory concentration (GI50) in the assay with BT-474 cancer cells and with SK-BR-3 cancer cells was less than 50 nM each time.

In the case of `C=CC(=O)Nc1cc(Nc2cc(N3OCC[C@@H]3c3cccc(-c4cccc(F)c4)c3)ncn2)c(OC)cc1N1CCN(C)C(=O)C1` [Example 288, (R)-N-(5-((6-(3-(3′-fluoro-[1,1′-biphenyl]-3-yl)-isoxazolidin-2-yl)-pyrimidin-4-yl)-amino)-4-meth-oxy-2-(4-methyl-3-oxopiperazin-1-yl)phenyl)acryl-amide], the GI50 with BT-474 cancer cells and in the assay with SK-BR-3 cancer cells was less than 50 nM each time.

On to `C=CC(=O)Nc1cc(Nc2cc(N3OCC[C@@H]3c3cccc(-c4cccc(F)c4)c3)ncn2)c(OC)cc1N1CCN(C(C)=O)CC1` [Example 289, (R)-N-(2-(4-acetyl-piperazin-1-yl)-5-((6-(3-(3′-fluoro-[1,1′-biphenyl]-3-yl)isoxazolidin-2-yl)pyrimidin-4-yl)-amino)-4-methoxy-phenyl)acrylamide], for which the GI50 in the assay on BT-474 cancer cells and with SK-BR-3 cancer cells was less than 50 nM each time.

Consider `C=CC(=O)Nc1cc(Nc2cc(N3OCC[C@@H]3c3cccc(-c4cccc(F)c4)c3)ncn2)c(OC)cc1N1CCS(=O)(=O)CC1` [Example 290, (R)-N-(2-(1,1-dioxidothiomorph-olino)-5-((6-(3-(3′-fluoro-[1,1′-biphen-yl]-3-yl)isoxazol-idin-2-yl)pyrim-idin-4-yl)amino)-4-methoxyphen-yl)acrylamide], for which the 50% growth inhibitory concentration (GI50) with BT-474 cancer cells and in the assay on SK-BR-3 cancer cells was less than 50 nM throughout.

As to `C=CC(=O)Nc1cc(Nc2cc(N3OCC[C@@H]3c3cccc(-c4cccc(F)c4)c3)ncn2)c(OC)cc1N1C[C@@H](C)O[C@@H](C)C1` [Example 292, N-(2-((2S,6R)-2,6-dimethylmorpho-lino)-5-((6-((R)-3-(3′-fluoro-[1,1′-biphenyl]-3-yl)-isoxazolidin-2-yl)-pyrimidin-4-yl)-amino)-4-methoxy-phenyl)acrylamide], the GI50 in the assay on BT-474 cancer cells and in the assay with SK-BR-3 cancer cells was less than 50 nM each time.

Turning to `C=CC(=O)Nc1cc(Nc2cc(N3OCC[C@@H]3c3cccc(-c4cccc(F)c4)c3)ncn2)c(OC)cc1N1CCN(C2COC2)CC1` [Example 293, (R)-N-(5-((6-(3-(3′-fluoro-[1,1′-biphenyl]-3-yl)-isoxazolidin-2-yl)-pyrimidin-4-yl)-amino)-4-methoxy-2-(4-(oxetan-3-yl)-piperazin-1-yl)-phenyl)acrylamide], the 50% growth inhibitory concentration (GI50) is 50 to 500 nM in the assay on BT-474 cancer cells and less than 50 nM with SK-BR-3 cancer cells.

On to `C=CC(=O)Nc1cc(Nc2cc(N3OCC[C@@H]3c3cccc(-c4cccc(F)c4)c3)ncn2)c(OC)cc1N1CCN(S(C)(=O)=O)CC1` [Example 294, (R)-N-(5-((6-(3-(3′-fluoro-[1,1′-biphenyl]-3-yl)-isoxazolidin-2-yl)-pyrimidin-4-yl)-amino)-4-methoxy-2-(4-(methylsulfon-yl)piperazin-1-yl)-phenyl)acrylamide], for which the GI50 with BT-474 cancer cells and in the assay with SK-BR-3 cancer cells was less than 50 nM throughout.

On to `C=CC(=O)Nc1cc(Nc2cc(N3OCC[C@@H]3c3cccc(-c4cccc(F)c4)c3)ncn2)c(OC)cc1N1CC2(CN(C(=O)OC(C)(C)C)C2)C1` [Example 295, tert-butyl (R)-6-(2-acrylamido-4-((6-(3-(3′-fluoro-[1,1′-biphenyl]-3-yl)-isoxazolidin-2-yl)-pyrimidin-4-yl)-amino)-5-methoxy-phenyl)-2,6-diazaspiro[3.3]-heptane-2-carbox-ylate], for which the GI50 with BT-474 cancer cells is less than 50 nM; with SK-BR-3 cancer cells it was 50 to 500 nM.

`C=CC(=O)Nc1cc(Nc2cc(N3OCC[C@@H]3c3cccc(C#Cc4ccccc4)c3)ncn2)c(OC)cc1N(C)CCN(C)C` [Example 297, (R)-N-(2-((2-(dimethylamino)-ethyl)(methyl)-amino)-4-methoxy-5-((6-(3-(3-(phen-ylethynyl)phenyl)-isoxazolidin-2-yl)-pyrimidin-4-yl)-amino)phenyl)-acrylamide]: the GI50 in the assay on BT-474 cancer cells and in the assay with SK-BR-3 cancer cells was less than 50 nM in each case.

With `C=CC(=O)Nc1cc(Nc2cc(N3OCC[C@@H]3c3cccc(-c4ccc(OC)nc4)c3)ncn2)c(OC)cc1N1CCN(C)CC1` [Example 298, (R)-N-(4-methoxy-5-((6-(3-(3-(6-methoxypyridin-3-yl)phenyl)-isox-azolidin-2-yl)-pyrimidin-4-yl)-amino)-2-(4-meth-ylpiperazin-1-yl)-phenyl)acrylamide], the GI50 in the assay on BT-474 cancer cells and with SK-BR-3 cancer cells was less than 50 nM throughout.

Regarding `C=CC(=O)Nc1cc(Nc2cc(N3OCC[C@@H]3c3cccc(-c4ccc(OC)nc4)c3)ncn2)c(OC)cc1N(C)CCN(C)C` [Example 300, (R)-N-(2-((2-(dimethylamino)-ethyl)(methyl)-amino)-4-methoxy-5-((6-(3-(3-(6-methoxypyridin-3-yl)phenyl)isox-azolidin-2-yl)pyr-imidin-4-yl)amino)-phenyl)acrylamide], the concentration for 50% growth inhibition (GI50) in the assay on BT-474 cancer cells and in the assay on SK-BR-3 cancer cells was less than 50 nM each time.

Take `C=CC(=O)Nc1cc(Nc2cc(N3OCC[C@@H]3c3cccc(-c4ccc(O)nc4)c3)ncn2)c(OC)cc1N(C)CCN(C)C` [Example 301, (R)-N-(2-((2-(dimethylamino)-ethyl)(methyl)-amino)-5-((6-(3-(3-(6-hydroxy-pyridin-3-yl)phen-yl)-isoxazolidin-2-yl)pyrimidin-4-yl)amino)-4-meth-oxyphenyl)acryl-amide]: the GI50 is less than 50 nM in the assay on BT-474 cancer cells and 50 to 500 nM in the assay with SK-BR-3 cancer cells.

In the case of `C=CC(=O)Nc1cc(Nc2cc(N3OCC[C@@H]3c3cccc(-c4cnc(C)c(F)c4)c3)ncn2)c(OC)cc1N1CCN(C)CC1` [Example 302, (R)-N-(5-((6-(3-(3-(5-fluoro-6-meth-ylpyridin-3-yl)-phenyl)isoxazol-idin-2-yl)pyrim-idin-4-yl)amino)-4-methoxy-2-(4-methylpiperazin-1-yl)phenyl)acryl-amide], the results for the GI50 in the assay with BT-474 cancer cells and in the assay on SK-BR-3 cancer cells were less than 50 nM and 50 to 500 nM, respectively.

As to `C=CC(=O)Nc1cc(Nc2cc(N3OCC[C@@H]3c3cccc(-c4cnc(C)c(F)c4)c3)ncn2)c(OC)cc1N(C)CCN(C)C` [Example 303, (R)-N-(2-((2-(dimethylamino)-ethyl)(methyl)-amino)-5-((6-(3-(3-(5-fluoro-6-methylpyridin-3-yl)phenyl)isoxazol-idin-2-yl)pyrim-idin-4-yl)amino)-4-methoxyphenyl)-acrylamide], the GI50 with BT-474 cancer cells and with SK-BR-3 cancer cells was less than 50 nM each time.
